From patent US11059830B2, “Compounds that participate in cooperative binding and uses thereof” (Revolution Medicines, Inc., priority 2015, dated 2021)

Key:
[1] = biological target: T1, FKBP12 (Homo sapiens (Human), UniProt P62942); assay: SPR kinetics of Compound 2 and Compound 6 binding to immobilized FKBP12 (Example 8); conditions: compound to immobilized FKBP12, 25° C.
Procedure: This protocol utilizes Surface Plasmon Resonance (SPR) as a method to determine kinetics (KD, Ka, Kd) for the binding of Compound 2 and Compound 6 (analyte) to immobilized FKBP12 (ligand).
Compound 2 and Compound 6 in 100% DMSO (in-house), 10×HBS-P+ buffer (GE Healthcare BR-1006-71), Assay buffer (1×HBS-P+ buffer, 1% DMSO), 12×HIS tagged FKBP12 (in-house).
(§1) Experiments are performed at 25° C. Stock solution of 12×HIS tagged FKBP12 is diluted to 100 nM in assay buffer (1% DMSO final). Approximately 500-600 RU of FKBP12 is immobilized on one of two flow cells of an activated NTA chip. The second flow cell is not activated as a reference for non-specific interaction of the analyte to the sensor chip. Various concentrations of Compound 2 or Compound 6 (1 nM-1 μM range), serially diluted into the same assay buffer (1% DMSO final), are injected onto the FKBP12 surface and reference surface at a flow rate of 10 μl/min. The surface is regenerated between analyte injections with 350 mM EDTA.
(§2) The BiaEvaluation software program is used for data fitting. All data is reference subtracted against both the reference flow cell and a buffer injection. For kinetic analyses, data is locally fit to a 1:1 interaction model.

[2] = biological target: T1, FKBP12; assay: AlphaLISA FKBP12 binding: inhibition of binding of biotinylated FK506 to FLAG tagged FKBP12; conditions: read-out: Binding affinity to FKBP12 (by displacement of FK506)
Source text: The binding of compounds of the invention to FKBP12 can be determined using the following protocol.
This protocol utilizes Perkin Elmers AlphaLISA technology platform to detect FKBP binders by measuring the inhibition of binding of biotinylated FK506 to FLAG tagged FKBP12.
10×TBST Buffer (Boston BioProducts IBB-181), Biotinylated FK506 (in-house), FLAG tagged FKBP (in-house); anti-FLAG Donor beads (Perkin Elmer AS103) and Streptavidin Acceptor beads (Perkin Elmer AL125); Compounds in DMSO (in-house), FK506.
Experimental Protocol/Description of Assay: Add 20 uL of 12.5 nM FKBP-FLAG working stock to each well of the 96-well plate. Add 1 uL of test compound (100% DMSO) to each well of the plate using the Janus MTD head and P20 tips (except control wells). Add 1 uL of DMSO to negative control wells and 1 uL of 50 uM FK506 solution to positive control wells. In the dark, add 20 uL of combined Donor/Acceptor beads to each well. Incubate in the dark for 30 minutes at room temperature. In the dark, add 10 uL of 5 nM biotinylated FK506 working stock to each well. Incubate in the dark for 60 minutes at room temperature. Protect plate from light until reading on Biotek Synergy2 Plate Reader; Alphalisa 96-well protocol (680 excitation/615 emission).

[3] = biological target: T1, FKBP12; assay: SPR binding of compound (analyte) to immobilized FKBP12 (Example 7); conditions: 25° C., 12×HIS tagged FKBP12 immobilized on NTA chip; read-out: SPR affinity to FKBP12: KD
Procedure: This protocol utilizes Surface Plasmon Resonance (SPR) as a method to determine kinetics (KD, Ka, Kd) for the binding of compound (analyte) to immobilized FKBP12 (ligand).
Compound in 100% DMSO (in-house), 10×HBS-P+ buffer (GE Healthcare BR-1006-71), Assay buffer (1×HBS-P+ buffer, 1% DMSO), 12×HIS tagged FKBP12 (in-house).
as §1, with “compound” for “Compound 2 or Compound 6”
as §2

[4] = biological target: CEP25011.4 (residues 2134-2231) (Homo sapiens (Human), UniProt P62942+Q9BV73); assay: SPR binding of CEP250 (analyte) to immobilized FKBP12-Compound 2 binary complex; conditions: FKBP12/Compound 2 complex binding to CEP25011.4, SPR, 1 μM compound
Procedure: (§3) This protocol utilizes Surface Plasmon Resonance (SPR) as a method to determine kinetics (KD, Ka, Kd) for the binding of CEP250 (analyte) to immobilized FKBP12-Compound 2 binary complex (ligand).
(§4) Compound 2 in 100% DMSO (in-house), 10×HBS-P+ buffer (GE Healthcare BR-1006-71), Assay buffer (1×HBS-P+ buffer, 1% DMSO, 1 μM Compound 2), 12×HIS tagged FKBP12 (in-house), CEP25029.2 (residues 1982-2231) and CEP25011.4 (residues 2134-2231) (in-house).
as §1, with “buffer containing 1 μM Compound 2” for “buffer”, “200-400” for “500-600”, “CEP250” for “Compound 2 or Compound 6”
as §2

[5] = biological target: CEP25029.2 (residues 1982-2231) (Homo sapiens (Human), UniProt P62942+Q9BV73); assay: as above; conditions: FKBP12/Compound 2 complex binding to CEP25029.2, SPR, 1 μM compound
Procedure: as §3, §4
as §1, with “buffer containing 1 μM Compound 2” for “buffer”, “200-400” for “500-600”, “CEP250” for “Compound 2 or Compound 6”
as §2

T1 sequence (P62942 whole entry): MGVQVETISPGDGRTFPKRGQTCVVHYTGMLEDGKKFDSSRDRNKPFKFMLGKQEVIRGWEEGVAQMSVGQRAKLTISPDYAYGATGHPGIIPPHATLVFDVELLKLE
Chain of CEP25011.4 (residues 2134-2231) (Q9BV73 2134-2231): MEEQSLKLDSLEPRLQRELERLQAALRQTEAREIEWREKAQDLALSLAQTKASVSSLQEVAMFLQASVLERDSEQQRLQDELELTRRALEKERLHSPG
Chain of CEP25011.4 (residues 2134-2231) (P62942 whole entry, the tested form may be a part): as the sequence (P62942 whole entry) above
Chain of CEP25029.2 (residues 1982-2231) (Q9BV73 1982-2231): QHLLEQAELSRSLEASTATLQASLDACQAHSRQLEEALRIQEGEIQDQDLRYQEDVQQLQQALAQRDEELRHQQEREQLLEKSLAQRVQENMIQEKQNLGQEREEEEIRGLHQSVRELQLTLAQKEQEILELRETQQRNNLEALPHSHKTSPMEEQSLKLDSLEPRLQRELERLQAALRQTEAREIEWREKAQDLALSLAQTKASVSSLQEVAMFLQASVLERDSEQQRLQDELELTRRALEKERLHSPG
Chain of CEP25029.2 (residues 1982-2231) (P62942 whole entry, the tested form may be a part): as the sequence (P62942 whole entry) above

For CC[C@H](Cc1ccccc1)[C@@H]1/C=C/C/C=C/C[C@@H](C)[C@H](O)[C@@H](C)[C@@H]2CC[C@@H](C)C(=O)C(O)(O2)C(=O)N2CCCC[C@H]2C(=O)O1 [Compound 2], the Kd [1] was 13.2 nM, the koff [1] was 0.000594 s⁻¹ and the kon ([1]; read-out: Ka) was 45000 M⁻¹ s⁻¹. For the same compound, the IC50 [2] was 1.5 nM, the Kd [3] was 12.6 nM and the “Kd” value [4] was 0.00309 s⁻¹. The kon ([4]; read-out: Ka) was 571000 M⁻¹ s⁻¹, the koff [5] was 9.25e-05 s⁻¹ and the kon ([5]; read-out: Ka) was 311000 M⁻¹ s⁻¹.
